Experimental data reported in publication PMC4746303, “Inactivation of Anopheles gambiae Glutathione Transferase ε2 by Epiphyllocoumarin” (Biochemistry Research International, 2016).

Columns and labels:
[1] = biological target: T1, Glutathione transferase epsilon 2 (AgGSTε2) (Anopheles gambiae, UniProt Q9GPL8); test: time- and concentration-dependent inactivation of purified enzyme, GST activity (CDNB/GSH) assay; KI […], kinact […] min^-1; format: biochemical
T1 construct: recombinant AgGSTε2 expressed from pET3a in E. coli BL21 (DE3) pLysS
T1 sequence (Q9GPL8 1-221): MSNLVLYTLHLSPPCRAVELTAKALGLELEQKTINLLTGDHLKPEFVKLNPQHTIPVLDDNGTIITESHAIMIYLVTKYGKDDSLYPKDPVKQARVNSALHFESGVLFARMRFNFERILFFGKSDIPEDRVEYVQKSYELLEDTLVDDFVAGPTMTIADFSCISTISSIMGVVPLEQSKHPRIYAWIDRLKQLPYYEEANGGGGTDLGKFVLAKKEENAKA

[2] = biological target: T1, Glutathione transferase epsilon 2 (AgGSTε2); test: time-dependent inactivation of purified enzyme at […] (positive control), half-life […] min; format: biochemical

Row | Structure (SMILES) | KI (inactivation) [1] | time-dependent inactivation of purified enzyme at 25 μM (positive control), half [2]
1 | O=c1ccc2c3c(c(O)cc2o1)C[C@@H](O)[C@@H](c1ccc(O)c(O)c1)O3 [Tral 1, epiphyllocoumarin] | 7.5 ± 2.1 µM | –
2 | C=C(CC)C(=O)c1ccc(OCC(=O)O)c(Cl)c1Cl [ETA, ethacrynic acid] | – | 22 min
